This is an account of results in ChEMBL document CHEMBL5335833, “Asperustins A-J: Austocystins with Immunosuppressive and Cytotoxic Activities from Aspergillus ustus NRRL 5856” (J Nat Prod, 2024).

Usually IC50 stands for the concentration at which inhibition is half-maximal. In general, CC50 refers to the concentration at which the toxic effect on the cells reaches its halfway point. Low values mean harm at low concentration, high ones better tolerance by the cells.

For series [1], the system named is Splenocyte. In words: Immunosuppressive activity in BALB/c mouse splenocytes assessed as reduction in ConA-induced mouse T-lymphocytes proliferation. The series is classed as functional, cell-based.
In series [2] the test system is Splenocyte. As to the kind of experiment: Immunosuppressive activity in BALB/c mouse splenocytes assessed as reduction in […]-induced mouse B-lymphocyte proliferation. The series is classed as functional, cell-based.
Series [3] in a line: Cytotoxicity against mouse T-lymphocytes. The format is toxicity, cell-based, T-cell.
Series [4] can be described thus: Cytotoxicity against mouse B-lymphocytes. The series is classed as toxicity, cell-based, B-cell.
Series [5] can be described thus: Selectivity index, ratio of CC50 for cytotoxicity against mouse T lymphocytes to IC50 for Immunosuppressive activity in BALB/c mouse splenocytes assessed as reduction in […]-induced mouse B-lymphocytes proliferation. The series is classed as toxicity, cell-based.
A short description of series [6]: Selectivity index, ratio of CC50 for cytotoxicity against mouse T lymphocytes to IC50 for Immunosuppressive activity in BALB/c mouse splenocytes assessed as reduction in ConA-induced mouse T-lymphocytes proliferation. The series is classed as toxicity, cell-based.
Series [7] concerns MCF7. In words: Cytotoxicity against human MCF7 cells. The format is functional, cell-based.
The subject of series [8] is Splenocyte. In words: Immunosuppressive activity in LPS-induced BALB/c mouse splenocyte assessed as reduction in IL-6 cytokine level incubated for 48 hrs by ELISA assay. The series is classed as functional, cell-based. The following applies: dose 0.2-5 µM. (In an ELISA, binding on a coated surface is turned into a signal by an enzyme label.)

As to `CCCCC[C@H](O)c1c(O)cc2c(c1O)C(=O)C1C(O)=CC(O)=CC1C2=O` (stereo partly drawn), the IC50 is > 40 µM in series [1] and 17 µM in series [2]. For the same molecule, the CC50 in series [3] and in series [4] was > 40 µM throughout. Further, in series [5], the selectivity ratio is > 2.4.
Consider `COc1c(C)c2c(c(O)c1C/C=C(\C)CCC(=O)OCCN1CCOCC1)C(=O)OC2` [MYCOPHENOLATE MOFETIL], for which the IC50 in series [2] came out at 0.21 mg/L.
`COc1cc(OC)c2c(c1)C(=O)C1C=C3O[C@@]4(C)CC[C@H](O)[C@H](O4)C3=C(O)C1C2=O` (stereo partly drawn): the results for the IC50 in series [1] and in series [2] were > 40 µM and 7 µM, respectively. Besides, the CC50 in series [3] and in series [4] was > 40 µM throughout. Besides, the selectivity ratio in series [5] was > 5.7.
`CC(C)=CCc1ccc(O)c2c1OC1C=C3O[C@H]4OC=C[C@@]4(O)C3=C(O)C1C2=O` (stereo partly drawn): the figures for the IC50 in series [1] and in series [2] were 14 µM and 16 µM, respectively. In addition, the CC50 in series [3] and in series [4] was 15 µM in each case. For the same molecule, the selectivity ratio in series [6] amounted to 1.1; in series [5], 0.94.
As for `CC(C)(O)C[C@H](O)c1ccc(O)c2c1OC1C=C3O[C@H]4OC=C[C@H]4C3=C(O)C1C2=O` (stereo partly drawn), the IC50 in series [1] came out at 1.2 µM; in series [2] it was 7.5 µM; in series [7], 0.46 µM. The CC50 in series [3] and in series [4] was 8.1 µM each time. In addition, the selectivity ratio is 6.8 in series [6] and 1.1 in series [5].
Regarding `CO[C@H]1C[C@H]2C3=C(O)C4C(=O)c5c(O)ccc(CCC(C)(C)O)c5OC4C=C3O[C@H]2O1` (stereo partly drawn), the IC50 is 1.1 µM in series [1] and 7.9 µM in series [2]. Also, the Activity entry in series [8] was “Dose-Dependent Effect”. Besides, the CC50 in series [3] and in series [4] was 15 µM in each case. Further, the figures for the selectivity ratio in series [6] and in series [5] were 14 and 1.9, respectively.
With `CO[C@@H]1C[C@@]2(O)C3=C(O)C4C(=O)c5c(O)ccc(CCC(C)(C)O)c5OC4C=C3O[C@H]2O1` (stereo partly drawn), the IC50 worked out at 1.3 µM in series [1] and 3.8 µM in series [2]. The CC50 in series [3] and in series [4] was 7.7 µM in each case. Moreover, the selectivity ratio in series [6] came out at 5.9; in series [5] it was 2.
Regarding `COc1c(Cl)ccc2c1C(=O)C1C(O)=C3C(=CC1O2)O[C@H]1OC=C[C@@]31O` (stereo partly drawn), the IC50 in series [1] and in series [2] was > 40 µM in each case. Besides, the CC50 in series [3] and in series [4] was > 40 µM throughout.
On to `CO[C@H]1C[C@@]2(O)C3=C(O)C4C(=O)c5c(O)ccc(CCC(C)(C)O)c5OC4C=C3O[C@H]2O1` (stereo partly drawn), for which the IC50 in series [1] came out at 1.2 µM; in series [2], 4.3 µM. In addition, the CC50 in series [3] and in series [4] was 8.9 µM each time. Moreover, the selectivity ratio in series [6] is 7.4; in series [5] it was 2.1.
For the molecule `C[C@]12CCC[C@H](O1)c1c(cc3c(c1O)C(=O)c1c(O)cc(O)cc1C3=O)O2`, the IC50 came out at 4.8 µM in series [1] and 22 µM in series [2]. Also, the CC50 in series [3] and in series [4] was > 40 µM each time. Moreover, the selectivity ratio in series [6] is > 8.3; in series [5], > 1.8.
Take `COC1=C2C(=CC3Oc4cccc(O)c4C(=O)C13)O[C@H]1OC=C[C@@]21O` (stereo partly drawn): the IC50 in series [1] and in series [2] was > 40 µM in each case. Besides, the CC50 in series [3] and in series [4] was > 40 µM in each case.
Take `COC1=C2C(=CC3Oc4c(OC)cc(Cl)c(OC)c4C(=O)C13)O[C@H]1O[C@@H](O)C[C@@H]21` (stereo partly drawn): the IC50 in series [1] stood at 11 µM; in series [2], 10 µM. In addition, the CC50 in series [3] and in series [4] was 31 µM each time. Besides, the selectivity ratio in series [6] was found to be 2.8; in series [5] it was 3.1.
`COC1=C2C(=CC3Oc4c(CCC(C)(C)O)ccc(O)c4C(=O)C13)O[C@H]1OC=C[C@@H]21` (stereo partly drawn): the IC50 in series [1] worked out at 4 µM; in series [2], 5.8 µM; in series [7], 0.46 µM. Besides, the half-maximal cytotoxic concentration (CC50) in series [3] and in series [4] was 17 µM throughout. Besides, the selectivity ratio is 4.3 in series [6] and 2.9 in series [5].
With `CC(C)(O)C[C@H](O)c1ccc(O)c2c1OC1C=C3O[C@H]4OC=C[C@@]4(O)C3=C(O)C1C2=O` (stereo partly drawn), the IC50 in series [1] was found to be 0.93 µM; in series [2] it was 12 µM; in series [7], 0.46 µM. Further, in series [8], the Activity result is “Dose-Dependent Effect”. The CC50 in series [3] and in series [4] was 16 µM each time. Moreover, the selectivity ratio in series [6] was 17; in series [5], 1.3.
Regarding `COC1=C2C(=CC3Oc4ccc(Cl)c(OC)c4C(=O)C13)O[C@H]1O[C@@H](OC)C[C@@H]21` (stereo partly drawn), the results for the IC50 in series [1] and in series [2] were 27 µM and 11 µM, respectively. Further, the CC50 in series [3] and in series [4] was > 40 µM each time. Moreover, the selectivity ratio in series [6] is > 1.5; in series [5] it was > 3.6.
As for `COc1ccc(CCC(C)(C)O)c2c1C(=O)C1C(O)=C3C(=CC1O2)O[C@H]1OC=C[C@@]31O` (stereo partly drawn), the IC50 is 1 µM in series [1], 8.4 µM in series [2] and 0.46 µM in series [7]. Further, the Activity entry in series [8] was “Dose-Dependent Effect”. In addition, the CC50 in series [3] and in series [4] was 14 µM throughout. Moreover, the selectivity ratio was determined as 14 in series [6] and 1.7 in series [5].
Regarding `O=C1c2c(O)cccc2OC2C=C3O[C@H]4OC=C[C@@]4(O)C3=C(O)C12` (stereo partly drawn), the IC50 was 9.4 µM in series [1] and > 40 µM in series [2]. Also, the CC50 in series [3] and in series [4] was > 40 µM throughout. The selectivity ratio in series [6] was > 4.2.
In the case of `CC(C)(O)CCc1ccc(O)c2c(=O)c3c(O)c4c(cc3oc12)O[C@H]1OC=C[C@@]41O` [AUSTOCYSTIN D], the IC50 in series [1] is 1.6 µM; in series [2], 4 µM; in series [7], 0.46 µM. The CC50 in series [3] and in series [4] was 7.8 µM throughout. In addition, the results for the selectivity ratio in series [6] and in series [5] were 4.9 and 2, respectively.
Turning to `CC(C)(O)CCc1ccc(O)c2c1OC1C=C3O[C@H]4OCC[C@H]4C3=C(O)C1C2=O` (stereo partly drawn), the IC50 was found to be 1 µM in series [1] and 3.6 µM in series [2]. In addition, the CC50 in series [3] and in series [4] was 5.2 µM throughout. Further, the selectivity ratio in series [6] was 5.2; in series [5], 1.4.
Regarding `COC1=C2C(=CC3Oc4ccc(Cl)c(OC)c4C(=O)C13)O[C@H]1O[C@H](OC)C[C@@H]21` (stereo partly drawn), the figures for the IC50 in series [1] and in series [2] were 11 µM and 5.1 µM, respectively. Also, the CC50 in series [3] and in series [4] was > 40 µM in each case. In addition, the selectivity ratio in series [6] was > 3.6; in series [5], > 7.8.
For `COC1=C2C(=CC3Oc4ccc(Cl)c(OC)c4C(=O)C13)O[C@H]1O[C@H](OC(C)=O)C[C@@H]21` (stereo partly drawn), the values for the IC50 in series [1] and in series [2] were 16 µM and 20 µM, respectively. The CC50 in series [3] and in series [4] was 28 µM throughout. The selectivity ratio in series [6] came to 1.8; in series [5], 1.4.
Turning to `CCCCC[C@H](OC)c1c(O)cc2c(c1O)C(=O)C1C(O)=CC(O)=CC1C2=O` (stereo partly drawn), the IC50 in series [1] and in series [2] was > 40 µM each time. Moreover, the CC50 in series [3] and in series [4] was > 40 µM each time.
Regarding `COC1=C2C(=CC3Oc4c(OC)cc(Cl)c(OC)c4C(=O)C13)O[C@H]1OC=C[C@@H]21` (stereo partly drawn), the results for the IC50 in series [1] and in series [2] were 7.1 µM and 13 µM, respectively. Further, the CC50 in series [3] and in series [4] was 12 µM each time. Moreover, the selectivity ratio in series [6] was determined as 1.7; in series [5], 0.92.
`CO[C@@H]1C[C@H]2C3=C(O)C4C(=O)c5c(O)ccc(CCC(C)(C)O)c5OC4C=C3O[C@H]2O1` (stereo partly drawn): the IC50 in series [1] stood at 2.1 µM; in series [2], 4.8 µM. For the same molecule, the CC50 in series [3] and in series [4] was 12 µM throughout. Also, the selectivity ratio in series [6] is 5.7; in series [5], 2.5.
